What was measured:
Format in all cases: cell-based
Candida albicans IFO1594 = assay: Dual minimum inhibitory concentration (agar dilution MIC) of 1,2-octanediol combined with a fragrance component, Candida albicans; conditions: fragrance component combined with 1,2-octanediol (50:50 by weight mixture); agar medium, 25° C., growth judged after three days
Description: (§1) Candida albicans IFO1594 (mycotic stomatitis), Staphylococcus aureus IF013276 (Staphylococcus aureus), and Pseudomonas aeruginosa IF013275 (Pseudomonas) are used as sample bacterias.
As to yeast (Candida albicans), the inoculating bacteria is prepared by incubating the yeast in the same way as Staphylococcus aureus and Pseudomonas at 30° C. and diluting the yeast to about 10^7 cell/ml.
(§2) With a dilution solvent of ethyl cellosolve of 20 w/w %, 1,2-octanediol solution of 5, 4, 3, 2.5, 2.25, 2, 1.75, 1.5, 1.25 and 1 w/v % are prepared.
(§3) While, as to thymol and the 50:50 by weight mixture of 1,2-octanediol and thymol, the dilution series are prepared by doubling diluting the 20w/v % solution.
(§4) 1 ml of each of the above-mentioned dilution series including the test material and 9 ml of the agar medium are introduced to each schales, and the above-mentioned inoculating bacteria was applied on each of the schales at the length of 1 cm.
(§5) Staphylococcus aureus and Pseudomonas were incubated at 35° C., and it was judged whether or not the bacteria had grown two days later. The yeast was incubated at 25° C., and it was judged whether or not the bacteria had grown three days later.
(§6) Each MIC of the obtained 1,2-octanediol, thymol, and the 50:50 mixture by weight of 1,2-octanediol and thymol corresponding the compounding amount of 1,2-octanediol and thymol is plotted to make out the dual minimum inhibitory concentration. Action and effect in case that two kinds of antibacterial materials are compounded can be judged by the dual minimum inhibitory concentration. More specifically, the actions caused by compounding two antibacterial materials are roughly classified into synergistic action, additive action and counteraction. Synergistic action is the action in that two kinds of agent act synergistically, to enhance the antibacterial activity that the agents originally have. The additive action is the action in that the antibacterial activities of the agents are put together. The counteraction is the action in that one agent cancels the antibacterial activity of the other agent.
(§7) The method using dual minimum inhibitory concentration, as shown in FIG. 1 for example, is the method to measure MICs as to material A and Material B at different proportions of them and to judge the result in view of the graph. In this method, a line is drawn to connect MIC (point A) in using only material A to MIC (point B) in using only material B. When the MIC (point C) in using both materials is inside the line, it is judged to be Synergistic action that antibacterial activity was strengthened by the combined use. When the MIC (point D) is on the line, it can be judged to be the additive action. When the MIC (point E) is in the outside of the line, it is judged to be the counteraction that cancels antibacterial activity of one or both of the materials to decrease the antibacterial activity.
(§8) The antibacterial effect in the case of mixing 1,2-octanediol and thymol was evaluated by the following evaluation criterion from dual minimum inhibitory concentration diagram in FIG. 2.

[1] = test system: Staphylococcus aureus IF013276; assay: Dual minimum inhibitory concentration (agar dilution MIC) of 1,2-octanediol combined with a fragrance component, Staphylococcus aureus; conditions: fragrance component combined with 1,2-octanediol (50:50 by weight mixture); agar medium, 35° C., growth judged after two days
Description: as §1
(§9) For preparing bacteria, as to Staphylococcus aureus and Pseudomonas, they are incubated at 35° C. in the agar medium, and further incubated at 35° C. after transferred into the bouillon medium. The inoculating bacteria is prepared by diluting the obtained culture solution to about 10^8 inoculating cell/ml.
as §2, §3, §4, §5, §6, §7, §8

Escherichia coli IFO3972 = assay: Dual minimum inhibitory concentration (agar dilution MIC) of 1,2-octanediol combined with a fragrance component, Escherichia coli; parameters: key: ◯: There is synergistic action in the antibacterial effect.; Δ: There is additive action in the antibacterial effect.; ×: There is counteraction in the antibacterial effect; conditions: fragrance component combined with 1,2-octanediol (50:50 by weight mixture); same way as Embodiment 1, E. coli instead of P. aeruginosa
Description: as §9, §2, §3
1 ml of each of the above-mentioned dilution series including the test material and 9 ml of the agar medium are introduced to each schales, and the above-mentioned inoculating bacteria was applied on each of the schales at the length of 1 cm. […]
as §8
Manipulating each of citronellol and β-pinene for fragrance component in the same way as in Embodiment 1 using Escherichia coli IFO3972 instead of Pseudomonas aeruginosa IF013275, each dual minimum inhibitory concentration of FIGS. 6-7 was obtained. […] From the obtained result, the antibacterial effect was evaluated by the above-mentioned evaluation criterion.

[2] = test system: Pseudomonas aeruginosa IF013275; assay: Dual minimum inhibitory concentration (agar dilution MIC) of 1,2-octanediol combined with a fragrance component, Pseudomonas aeruginosa; conditions: fragrance component combined with 1,2-octanediol (50:50 by weight mixture); agar medium, 35° C., growth judged after two days
Description: as §1, §9, §2, §3, §4
Staphylococcus aureus and Pseudomonas were incubated at 35° C., and it was judged whether or not the bacteria had grown two days later. […]
as §8

In the case of `C=C1CCC2CC1C2(C)C` (stereo not drawn) [β-pinene], the “antibacterial effect of mixing with 1,2-octanediol, judged from dual minimum inhibitory concentration diagram, C. albicans” value (Candida albicans IFO1594) is reported as “∘”, the “antibacterial effect of mixing with 1,2-octanediol, judged from dual minimum inhibitory concentration diagram, S. aureus” value [1] is reported as “∘” and the “antibacterial effect of mixing with 1,2-octanediol, judged from dual minimum inhibitory concentration diagram, E. coli” value (Escherichia coli IFO3972) is reported as “Δ”.

`CC(=O)O[C@@H]1C[C@H]2CC[C@]1(C)C2(C)C` (racemic) [isobornyl acetate, reference compound] was tested, and the “antibacterial effect of mixing with 1,2-octanediol, judged from dual minimum inhibitory concentration diagram, S. aureus” value [1] was “∘”.

guaiac acetate [reference compound] was tested, and the “antibacterial effect of mixing with 1,2-octanediol, judged from dual minimum inhibitory concentration diagram, S. aureus” value [1] was “∘”.

In the case of `CC(=O)OC(C)(C)C1CC=C(C)CC1` (stereo not drawn) [terpinyl acetate], the “antibacterial effect of mixing with 1,2-octanediol, judged from dual minimum inhibitory concentration diagram, C. albicans” value (Candida albicans IFO1594) is reported as “∘” and the “antibacterial effect of mixing with 1,2-octanediol, judged from dual minimum inhibitory concentration diagram, S. aureus” value [1] is reported as “∘”.

`CC(C)=CCCC(C)CC=O` (stereo not drawn) [citronellal] was tested, and the “antibacterial effect of mixing with 1,2-octanediol, judged from dual minimum inhibitory concentration diagram, C. albicans” value (Candida albicans IFO1594) was “∘” and the “antibacterial effect of mixing with 1,2-octanediol, judged from dual minimum inhibitory concentration diagram, S. aureus” value [1] was “∘”.

In the case of `Cc1ccc(C(C)C)c(O)c1` [Thymol], the “antibacterial effect of mixing with 1,2-octanediol, judged from dual minimum inhibitory concentration diagram, C. albicans” value (Candida albicans IFO1594) is reported as “∘”, the “antibacterial effect of mixing with 1,2-octanediol, judged from dual minimum inhibitory concentration diagram, S. aureus” value [1] is reported as “∘” and the “antibacterial effect of mixing with 1,2-octanediol, judged from dual minimum inhibitory concentration diagram, P. aeruginosa” value [2] is reported as “∘”.

`CC(C)=CCCC(C)CCO` (stereo not drawn) [citronellol] was tested, and the “antibacterial effect of mixing with 1,2-octanediol, judged from dual minimum inhibitory concentration diagram, C. albicans” value (Candida albicans IFO1594) was “∘”, the “antibacterial effect of mixing with 1,2-octanediol, judged from dual minimum inhibitory concentration diagram, S. aureus” value [1] was “∘” and the “antibacterial effect of mixing with 1,2-octanediol, judged from dual minimum inhibitory concentration diagram, E. coli” value (Escherichia coli IFO3972) was “∘”.

For `C=CCc1ccc(O)c(OC)c1` [Eugenol], the “antibacterial effect of mixing with 1,2-octanediol, judged from dual minimum inhibitory concentration diagram, C. albicans” value (Candida albicans IFO1594) was “∘”, the “antibacterial effect of mixing with 1,2-octanediol, judged from dual minimum inhibitory concentration diagram, S. aureus” value [1] was “∘” and the “antibacterial effect of mixing with 1,2-octanediol, judged from dual minimum inhibitory concentration diagram, P. aeruginosa” value [2] was “∘”.
